Data as given in the supplement of paper PMC8671470.

Columns and labels:
Experiment in all cases: cell viability (% survival relative to DMSO control); higher = less cytotoxic
Settings in all cases: 72 h
[1] = tested on: myeloid leukemia patient primary cells Pat.14
Summary of the method: (§1)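 Mononuclear cells from patients with AML or CML were thawed, purified on Ficoll and placed in RPMI 1640 with 10% FBS at 10,000 cells/well on 384-well plates. The plates came pre-printed with 70 compounds at five tenfold concentrations spanning 1–10,000 nM, in duplicate, and cells were exposed for 72 h. CellTiter-Glo gave viability, scaled between DMSO wells and wells with 10 μM proteasome inhibitor. Where reported, area under the curve was obtained from log-logistic fits with four parameters using the drc and PharmacoGx R packages.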

[2] = tested on: myeloid leukemia patient primary cells Pat.4
Summary of the method: as §1

[3] = tested on: myeloid leukemia patient primary cells Pat.1
Summary of the method: as §1

[4] = tested on: myeloid leukemia patient primary cells Pat.8
Summary of the method: as §1

[5] = tested on: myeloid leukemia patient primary cells Pat.9
Summary of the method: as §1

[6] = tested on: myeloid leukemia patient primary cells Pat.12
Summary of the method: as §1

[7] = tested on: myeloid leukemia patient primary cells Pat.3
Summary of the method: as §1

[8] = tested on: myeloid leukemia patient primary cells Pat.5
Summary of the method: as §1

[9] = tested on: myeloid leukemia patient primary cells Pat.13
Summary of the method: as §1

O=C(O)CC[N+](=O)[O-] [3-nitropropionic acid]
cell viability ([1]; 1 nM): 98.6%
cell viability ([1]; 10 nM): 91.2%
cell viability ([1]; 100 nM): > 100%
cell viability ([1]; 1000 nM): 84.7%
cell viability ([1]; 10000 nM): 30.7%
cell viability ([2]; 1 nM): 83.6%
cell viability ([2]; 10 nM): 84.5%
cell viability ([2]; 100 nM): 99.3%
cell viability ([2]; 1000 nM): 95.6%
cell viability ([2]; 10000 nM): 5.84%
cell viability ([3]; 1 nM): 84.1%
cell viability ([3]; 10 nM): 94.1%
cell viability ([3]; 100 nM): > 100%
cell viability ([3]; 1000 nM): 88.4%
cell viability ([3]; 10000 nM): 68.5%
cell viability ([4]; 1 nM): 81.1%
cell viability ([4]; 10 nM): 96.9%
cell viability ([4]; 100 nM): 95.6%
cell viability ([4]; 1000 nM): 96.3%
cell viability ([4]; 10000 nM): 82.7%
cell viability ([5]; 1 nM): 80.9%
cell viability ([5]; 10 nM): 66.3%
cell viability ([5]; 100 nM): 81.6%
cell viability ([5]; 1000 nM): 71.5%
cell viability ([5]; 10000 nM): 2.42%
cell viability ([6]; 1 nM): 97.9%
cell viability ([6]; 10 nM): 84%
cell viability ([6]; 100 nM): > 100%
cell viability ([6]; 1000 nM): 91.5%
cell viability ([6]; 10000 nM): 48.2%
cell viability ([7]; 1 nM): 91.5%
cell viability ([7]; 10 nM): 93.8%
cell viability ([7]; 100 nM): 99.8%
cell viability ([7]; 1000 nM): 92.1%
cell viability ([7]; 10000 nM): 3.01%
cell viability ([8]; 1 nM): 85.9%
cell viability ([8]; 10 nM): 50.1%
cell viability ([8]; 100 nM): 81.8%
cell viability ([8]; 1000 nM): 67.1%
cell viability ([8]; 10000 nM): 0.265%
cell viability ([9]; 1 nM): 87.3%
cell viability ([9]; 10 nM): 92.4%
cell viability ([9]; 100 nM): 95.5%
cell viability ([9]; 1000 nM): 88.3%
cell viability ([9]; 10000 nM): 70.8%

O=C(/C=C/c1ccc(O)c(O)c1)OCCc1ccccc1 [Caffeic acid phenethyl ester]
cell viability ([1]; 1 nM): 95.7%
cell viability ([1]; 10 nM): 83.5%
cell viability ([1]; 100 nM): 80.5%
cell viability ([1]; 1000 nM): 48.9%
cell viability ([1]; 10000 nM): 16.3%
cell viability ([2]; 1 nM): 89.5%
cell viability ([2]; 10 nM): 87.7%
cell viability ([2]; 100 nM): 86.2%
cell viability ([2]; 1000 nM): 16.7%
cell viability ([2]; 10000 nM): 2.41%
cell viability ([3]; 1 nM): 98.5%
cell viability ([3]; 10 nM): 93%
cell viability ([3]; 100 nM): 98.4%
cell viability ([3]; 1000 nM): 63.3%
cell viability ([3]; 10000 nM): 44%
cell viability ([4]; 1 nM): 97.7%
cell viability ([4]; 10 nM): 80.9%
cell viability ([4]; 100 nM): 85.1%
cell viability ([4]; 1000 nM): 29%
cell viability ([4]; 10000 nM): 5.61%
cell viability ([5]; 1 nM): 68.9%
cell viability ([5]; 10 nM): 84.8%
cell viability ([5]; 100 nM): 8.63%
cell viability ([5]; 1000 nM): 11.1%
cell viability ([5]; 10000 nM): 11.8%
cell viability ([6]; 1 nM): > 100%
cell viability ([6]; 10 nM): 95.5%
cell viability ([6]; 100 nM): > 100%
cell viability ([6]; 1000 nM): 57.4%
cell viability ([6]; 10000 nM): 34.5%
cell viability ([7]; 1 nM): 92%
cell viability ([7]; 10 nM): 83.1%
cell viability ([7]; 100 nM): 39.1%
cell viability ([7]; 1000 nM): 41.7%
cell viability ([7]; 10000 nM): 3.62%
cell viability ([8]; 1 nM): 65.2%
cell viability ([8]; 10 nM): 69.6%
cell viability ([8]; 100 nM): 55.9%
cell viability ([8]; 1000 nM): 4.78%
cell viability ([8]; 10000 nM): 21.6%
cell viability ([9]; 1 nM): > 100%
cell viability ([9]; 10 nM): 91%
cell viability ([9]; 100 nM): 95.8%
cell viability ([9]; 1000 nM): 87.2%
cell viability ([9]; 10000 nM): 42%

c1cc(-c2cnn3cc(-c4ccc(OCCN5CCCCC5)cc4)cnc23)ccn1 [Dorsomorphin]
cell viability ([1]; 1 nM): 48.1%
cell viability ([1]; 10 nM): 100%
cell viability ([1]; 100 nM): 53%
cell viability ([1]; 1000 nM): 84.5%
cell viability ([1]; 10000 nM): 60.8%
cell viability ([2]; 1 nM): 86.7%
cell viability ([2]; 10 nM): 91.5%
cell viability ([2]; 100 nM): 90.1%
cell viability ([2]; 1000 nM): 56.8%
cell viability ([2]; 10000 nM): 35.9%
cell viability ([3]; 1 nM): 76.7%
cell viability ([3]; 10 nM): 93.2%
cell viability ([3]; 100 nM): 78.1%
cell viability ([3]; 1000 nM): 65.8%
cell viability ([3]; 10000 nM): 27.8%
cell viability ([4]; 1 nM): 77.5%
cell viability ([4]; 10 nM): 99%
cell viability ([4]; 100 nM): 92.6%
cell viability ([4]; 1000 nM): 81.6%
cell viability ([4]; 10000 nM): 68.6%
cell viability ([5]; 1 nM): 41.6%
cell viability ([5]; 10 nM): > 100%
cell viability ([5]; 100 nM): 11.5%
cell viability ([5]; 1000 nM): 41.3%
cell viability ([5]; 10000 nM): 18.7%
cell viability ([6]; 1 nM): 98.5%
cell viability ([6]; 10 nM): 97.1%
cell viability ([6]; 100 nM): 98.5%
cell viability ([6]; 1000 nM): 92%
cell viability ([6]; 10000 nM): 91.6%
cell viability ([7]; 1 nM): 64.7%
cell viability ([7]; 10 nM): 99.1%
cell viability ([7]; 100 nM): 67.9%
cell viability ([7]; 1000 nM): 86.3%
cell viability ([7]; 10000 nM): 34.1%
cell viability ([8]; 1 nM): 3.45%
cell viability ([8]; 10 nM): 81.3%
cell viability ([8]; 100 nM): 5.46%
cell viability ([8]; 1000 nM): 1.33%
cell viability ([8]; 10000 nM): 10.2%
cell viability ([9]; 1 nM): 88.2%
cell viability ([9]; 10 nM): 94.5%
cell viability ([9]; 100 nM): 64.7%
cell viability ([9]; 1000 nM): 50.7%
cell viability ([9]; 10000 nM): 48.6%
